Laboratory results as given in patent publication US7618990B2, “Oxazolidone derivatives as PR modulators” (Wyeth, priority 2006, dated 2009).

Tested on: alkaline phosphatase activity in T47D cells
Assay: Effects of progestins and antiprogestins on alkaline phosphatase activity in T47D cells (antagonist mode)
Type: cell-based
Details: Homo sapiens, in the presence of 1 nM progesterone, read-out: T47D Alkaline Phosphatase Activity IC50 (nM) or % inhibition; for IC50: 24 h; for inhibition at 3 µM: % inhibition at 3000 nM
Experimental: (1) Effects of Progestins and Antiprogestins on Alkaline Phosphatase Activity in T47D Cells
PURPOSE: To identify progestins or antiprogestins by determining a compound's effect on alkaline phosphatase activity in T47D cells.
Culture Medium: • DMEM:F12 (1:1) (GIBCO, BRL) supplemented with 5% (v/v) charcoal stripped fetal bovine serum (not heat-inactivated), 100 U/mL penicillin, 100 μg/mL streptomycin, and 2 mM the GlutaMax™ reagent (GIBCO, BRL).
Alkaline Phosphatase Assay Buffer: • I. 0.1M Tris-HCl, pH 9.8, containing 0.2% the Triton® X-100 reagent • II. 0.1M Tris-HCl, pH 9.8, containing 4 mM p-nitrophenyl phosphate (Sigma). B. Cell Culture and Treatment:
Frozen T47D cells were thawed in a 37° C. water bath and diluted to 280,000 cells/mL in culture medium. To each well in a 96-well plate (Falcon, Becton Dickinson Labware), 180 μL of diluted cell suspension was added.
Twenty μL of reference or test compounds diluted in the culture medium was then added to each well. When testing for progestin antagonist activity, reference antiprogestins or test compounds were added in the presence of 1 nM progesterone. The cells were incubated at 37° C. in a 5% CO2/humidified atmosphere for 24 h.
NOTE: For high throughput screening, one concentration of each compound was tested at 0.3 μg/mL. Based on an average molecular weight of 300 g/mol for the compounds in the library, the concentration was approximately 1 μM. Subsequently, active compounds were tested in dose response assays to determine EC50 and IC50. C. Alkaline Phosphatase Enzyme Assay:
At the end of treatment, the medium was removed from the plate. Fifty μL of assay buffer I was added to each well. The plates were shaken in a titer plate shaker for 15 min. Then 150 μL of assay buffer II was added to each well. Optical density measurements were taken at 5 min intervals for 30 min at a test wavelength of 405 nm.
For reference and test compounds, a dose response curve was generated for dose (X-axis) vs. the rate of enzyme reaction (slope) (Y-axis). Square root-transformed data was used for analysis of variance and nonlinear dose response curve fitting for both agonist and antagonist modes. Huber weighting was used to down-weight the effects of outliers. EC50 or IC50 values were calculated from the retransformed values. JMP software (SAS Institute, Inc.) was used for both one-way analysis of variance and non-linear dose response analysis in both single dose and dose response studies.
Progesterone and trimegestone were reference progestins and RU486 was the reference antiprogestin. All reference compounds were run in full dose response curves and the EC50 and IC50 values were calculated.

IC50 [nM]	Structure (SMILES)	also measured
17.1	N#Cc1ccc(-c2csc(N3C(=O)OCC34CCC4)n2)cc1 [Example 27, 4-[2-(6-Oxo-7-oxa-5-azaspiro[3.4]oct-5-yl)-1,3-thiazol-4-yl]benzonitrile]	
733	CN1CCN(c2nc(-c3ccc(Br)cc3)cs2)C1=O [Example 76, 1-[4-(4-Bromophenyl)-1,3-thiazol-2-yl]-3-methylimidazolidin-2-one]	
6.4	CC1(C)COC(=S)N1c1nc(-c2ccc(C#N)cc2)cs1 [Example 82, 4-[2-(4,4-Dimethyl-2-thioxo-1,3-oxazolidin-3-yl)-1,3-thiazol-4-yl]benzonitrile]	
35.4	CN1CC(C)(C)N(c2nc(-c3ccc(C#N)cc3)cs2)C1=O [Example 83, 4-[2-(3,5,5-Trimethyl-2-oxoimidazolidin-1-yl)-1,3-thiazol-4-yl]benzonitrile]	
77.9	CC1(C)CN(Cc2ccccc2)C(=O)N1c1nc(-c2ccc(C#N)cc2)cs1 [Example 84, 4-[2-(3-Benzyl-5,5-dimethyl-2-oxoimidazolidin-1-yl)-1,3-thiazol-4-yl]benzonitrile]	
729	CC1(C)COC(=O)N1c1nc(-c2ccc(C(N)=NO)cc2)cs1 [Example 85, 4-[2-(4,4-Dimethyl-2-oxo-1,3-oxazolidin-3-yl)-1,3-thiazol-4-yl]-N′-hydroxybenzene carboximidamide]	
5	CCC1(CC)COC(=O)N1c1nc2c(s1)CCc1cc(C#N)ccc1-2 [Example 86, 2-(4,4-Diethyl-2-oxo-1,3-oxazolidin-3-yl)-4,5-dihydronaphtho[1,2-d][1,3]thiazole-7-carbonitrile]	
43.5	CC1(C)COC(=O)N1c1nc(-c2ccc(C#N)cc2)c(Cl)s1 [Example 90, 4-[5-Chloro-2-(4,4-dimethyl-2-oxo-1,3-oxazolidin-3-yl)-1,3-thiazol-4-yl]benzonitrile]	
	O=C1OC[C@H](COCc2ccccc2)N1c1nc(-c2ccc(Br)cc2)cs1 [Example 91, (4S)-4-[(benzyloxy)methyl]-3-[4-(4-bromophenyl)-1,3-thiazol-2-yl]-1,3-oxazolidin-2-one]	inhibition at 3 µM: 63%
	CC1(C)COC(=O)N1c1nc(-c2ccc(C#N)cc2)co1 [Example 92, 4-[2-(4,4-dimethyl-2-oxo-1,3-oxazolidin-3-yl)-1,3-oxazol-4-yl]benzonitrile]	inhibition at 3 µM: 76%
135	CC1(C)COC(=O)N1c1nc(-c2ccc(Br)cc2)ns1 [Example 93, 3-[3-(4-Bromophenyl)-1,2,4-thiadiazol-5-yl]-4,4-dimethyl-1,3-oxazolidin-2-one]	
146	CC1(C)COC(=O)N1c1nc(-c2ccc(C#N)cc2)ns1 [Example 94, 4-[5-(4,4-dimethyl-2-oxo-1,3-oxazolidin-3-yl)-1,2,4-thiadiazol-3-yl]benzonitrile]	
108	CC1(C)COC(=O)N1c1nc(-c2ccc(C(F)(F)F)cc2)cs1 [Example 95, 4,4-Dimethyl-3-{4-[4-(trifluoromethyl)phenyl]-1,3-thiazol-2-yl}-1,3-oxazolidin-2-one]	
328	CC1(C)COC(=O)N1c1nc(-c2cccc(C(F)(F)F)c2)cs1 [Example 96, 4,4-Dimethyl-3-{4-[3-(trifluoromethyl)phenyl]-1,3-thiazol-2-yl}-1,3-oxazolidin-2-one]	
285	CC1(C)COC(=O)N1c1nc(-c2ccc(OC(F)(F)F)cc2)cs1 [Example 97, 4,4-Dimethyl-3-{4-[4-(trifluoromethoxy)phenyl]-1,3-thiazol-2-yl}-1,3-oxazolidin-2-one]	
191	COc1ccc(-c2csc(N3C(=O)OCC3(C)C)n2)cc1 [Example 98, 3-[4-(4-Methoxyphenyl)-1,3-thiazol-2-yl]-4,4-dimethyl-1,3-oxazolidin-2-one]	
64.6	COc1cccc(-c2csc(N3C(=O)OCC3(C)C)n2)c1 [Example 99, 3-[4-(3-Methoxyphenyl)-1,3-thiazol-2-yl]-4,4-dimethyl-1,3-oxazolidin-2-one]	

IC50 [nM]	Structure (SMILES)	also measured
854	COc1ccccc1-c1csc(N2C(=O)OCC2(C)C)n1 [Example 100, 3-[4-(2-Methoxyphenyl)-1,3-thiazol-2-yl]-4,4-dimethyl-1,3-oxazolidin-2-one]	
536	CC1(C)COC(=O)N1c1nc(-c2c(F)cc(F)cc2F)cs1 [Example 101, 4,4-Dimethyl-3-[4-(2,4,6-trifluorophenyl)-1,3-thiazol-2-yl]-1,3-oxazolidin-2-one]	
	CCS(=O)(=O)c1cccc(-c2csc(N3C(=O)OCC3(C)C)n2)c1 [Example 102, 3-{4-[3-(Ethylsulfonyl)phenyl]-1,3-thiazol-2-yl}-4,4-dimethyl-1,3-oxazolidin-2-one]	inhibition at 3 µM: 27%
262	CC1(C)COC(=O)N1c1nc(-c2ccc(CC#N)cc2)cs1 [Example 103, {4-[2-(4,4-Dimethyl-2-oxo-1,3-oxazolidin-3-yl)-1,3-thiazol-4-yl]phenyl}acetonitrile]	
	CC1(C)COC(=O)N1c1nc(-c2ccoc2)cs1 [Example 104, 3-[4-(3-Furyl)-1,3-thiazol-2-yl]-4,4-dimethyl-1,3-oxazolidin-2-one]	inhibition at 3 µM: 94%
110	CC1(C)COC(=O)N1c1nc(-c2ccc3[nH]ccc3c2)cs1 [Example 105, 3-[4-(1H-Indol-5-yl)-1,3-thiazol-2-yl]-4,4-dimethyl-1,3-oxazolidin-2-one]	
498	CC(=O)c1ccc(-c2csc(N3C(=O)OCC3(C)C)n2)cc1 [Example 106, 3-[4-(4-Acetylphenyl)-1,3-thiazol-2-yl]-4,4-dimethyl-1,3-oxazolidin-2-one]	
83.7	CC(=O)c1cccc(-c2csc(N3C(=O)OCC3(C)C)n2)c1 [Example 107, 3-[4-(3-Acetylphenyl)-1,3-thiazol-2-yl]-4,4-dimethyl-1,3-oxazolidin-2-one]	
823	COc1ccc(-c2csc(N3C(=O)OCC3(C)C)n2)cc1OC [Example 108, 3-[4-(3,4-Dimethoxyphenyl)-1,3-thiazol-2-yl]-4,4-dimethyl-1,3-oxazolidin-2-one]	
28.8	CC1(C)COC(=O)N1c1nc(-c2ccc(Cl)c(F)c2)cs1 [Example 109, 3-[4-(4-Chloro-3-fluorophenyl)-1,3-thiazol-2-yl]-4,4-dimethyl-1,3-oxazolidin-2-one]	
269	CC1(C)OCCN1c1nc(-c2ccc(C#N)cc2)cs1 [Example 110, 4-[2-(2,2-Dimethyl-1,3-oxazolidin-3-yl)-1,3-thiazol-4-yl]benzonitrile]	
480	N#Cc1ccc(-c2csc(N3CCOC3=O)c2)cc1 [Example 112, 4-[5-(2-Oxo-1,3-oxazolidin-3-yl)-3-thienyl]benzonitrile]	
	CC1(C)COC(=O)N1c1nc(-c2ccc(Cl)cc2)cs1 [Example 114, 3-[4-(4-Chlorophenyl)-1,3-thiazol-2-yl]-4,4-dimethyl-1,3-oxazolidin-2-one]	inhibition at 0.03 µM (% inhibition at 30 nM): 53%
72.2	CC1(C)COC(=O)N1c1nc(-c2ccc(F)cc2)cs1 [Example 115, 3-[4-(4-Fluorophenyl)-1,3-thiazol-2-yl]-4,4-dimethyl-1,3-oxazolidin-2-one]	
461	CC1(C)COC(=O)N1c1nc(-c2cc(Cl)cc(Cl)c2)cs1 [Example 116, 3-[4-(3,5-Dichlorophenyl)-1,3-thiazol-2-yl]-4,4-dimethyl-1,3-oxazolidin-2-one]	
50.4	CC1(C)COC(=O)N1c1nc(-c2ccc(F)c(Cl)c2)cs1 [Example 117, 3-[4-(3-Chloro-4-fluorophenyl)-1,3-thiazol-2-yl]-4,4-dimethyl-1,3-oxazolidin-2-one]	
